From ChEMBL document CHEMBL1139600, “Synthesis, in vivo and in vitro biological activity of novel azaline B analogs” (Bioorg Med Chem Lett, 2005)
*1 amine or outer side, *2 acyl side, *3 side chain or, on linkers, in order; H or OH if unused. Where a SMILES comes first, the peptide text is derived from it. [ ]: non-standard residue; d: D form. Phe(4-NH(5-NH2triazol-3-yl)) = Nc1nc(Nc2ccc(C[C@H](N)C(=O)O)cc2)n[nH]1; X1 = Nc1nc(Nc2ccc(C[C@@H](N[*:1])C(=O)[*:2])cc2)n[nH]1; dPhe(4-Cl) = N[C@H](Cc1ccc(Cl)cc1)C(=O)O; d2Nal = N[C@H](Cc1ccc2ccccc2c1)C(=O)O; Lys(iPr) = CC(C)NCCCC[C@H](N)C(=O)O; d3Pal = N[C@H](Cc1cccnc1)C(=O)O

Assays:
[1] = biological target: T1, Gonadotropin-releasing hormone receptor (Homo sapiens, UniProt P30968); test: (§1) In vitro inhibition of human gonadotropin-releasing hormone expressed in HEK293 cells; format: cell-based
T1 sequence (P30968 whole entry): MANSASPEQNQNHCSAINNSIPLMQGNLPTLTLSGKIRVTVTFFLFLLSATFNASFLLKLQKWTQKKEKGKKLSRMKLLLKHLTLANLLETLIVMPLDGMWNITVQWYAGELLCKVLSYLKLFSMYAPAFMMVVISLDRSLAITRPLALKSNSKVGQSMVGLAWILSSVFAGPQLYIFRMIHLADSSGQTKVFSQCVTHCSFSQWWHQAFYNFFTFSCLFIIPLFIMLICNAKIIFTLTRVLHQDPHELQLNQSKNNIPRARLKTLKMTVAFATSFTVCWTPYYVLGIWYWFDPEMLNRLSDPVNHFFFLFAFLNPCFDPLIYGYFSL

[2] = biological target: T1, Gonadotropin-releasing hormone receptor; test: as §1; format: cell-based; remark: listed apart in the source

Compound | IC50 [1] | IC50 [2]
CC(C)C[C@H](NC(=O)[C@@H](Cc1ccc(NC(N)=O)cc1)NC(=O)[C@H](Cc1ccc(NC(=O)C(N)CN)cc1)NC(=O)[C@H](CO)NC(=O)[C@@H](Cc1cccnc1)NC(=O)[C@@H](Cc1ccc(Cl)cc1)NC(=O)[C@H](N)Cc1ccc2ccccc2c1)C(=O)N[C@@H](CCCCNC(C)C)C(=O)N1CCC[C@H]1C(=O)N[C@H](C)C(=O)O (some centres undefined) | 2.82 nM | 3.16 nM
CC(=O)N[C@H](Cc1ccc2ccccc2c1)C(=O)N[C@H](Cc1ccc(Cl)cc1)C(=O)N[C@H](Cc1cccnc1)C(=O)N[C@@H](CO)C(=O)N[C@@H](Cc1ccc(NC(=O)[C@@H]2CCC(=O)N2)cc1)C(=O)N[C@H](Cc1ccc(NC(N)=O)cc1)C(=O)N[C@@H](CC(C)C)C(=O)N[C@@H](CCCCNC(C)C)C(=O)N1CCC[C@H]1C(=O)N[C@H](C)C(=O)O | 1.85 nM | 2 nM
CC(=O)N[C@H](Cc1ccc2ccccc2c1)C(=O)N[C@H](Cc1ccc(Cl)cc1)C(=O)N[C@H](Cc1cccnc1)C(=O)N[C@@H](CO)C(=O)N[C@@H](Cc1ccc(NCC(=O)n2cc(C)c(=O)[nH]c2=O)cc1)C(=O)N[C@H](Cc1ccc(NC(N)=O)cc1)C(=O)N[C@@H](CC(C)C)C(=O)N[C@@H](CCCCNC(C)C)C(=O)N1CCC[C@H]1C(=O)N[C@H](C)C(N)=O | 2.46 nM | 2.51 nM
CC(=O)N[C@H](Cc1ccc2ccccc2c1)C(=O)N[C@H](Cc1ccc(Cl)cc1)C(=O)N[C@H](Cc1cccnc1)C(=O)N[C@@H](CO)C(=O)N[C@@H](Cc1ccc(NC(=O)NC(=O)[C@H](N)CC(N)=O)cc1)C(=O)N[C@H](Cc1ccc(NC(N)=O)cc1)C(=O)N[C@@H](CC(C)C)C(=O)N[C@@H](CCCCNC(C)C)C(=O)N1CCC[C@H]1C(=O)N[C@H](C)C(=O)O | 2.22 nM | 2 nM
CC(=O)N[C@H](Cc1ccc2ccccc2c1)C(=O)N[C@H](Cc1ccc(Cl)cc1)C(=O)N[C@H](Cc1cccnc1)C(=O)N[C@@H](CO)C(=O)N[C@@H](Cc1ccc(NC(=O)C(N)CCN)cc1)C(=O)N[C@H](Cc1ccc(NC(N)=O)cc1)C(=O)N[C@@H](CC(C)C)C(=O)N[C@@H](CCCCNC(C)C)C(=O)N1CCC[C@H]1C(=O)N[C@H](C)C(=O)O (some centres undefined) | 3.53 nM | 3.16 nM
CC(=O)N[C@H](Cc1ccc2ccccc2c1)C(=O)N[C@H](Cc1ccc(Cl)cc1)C(=O)N[C@H](Cc1cccnc1)C(=O)N[C@@H](CO)C(=O)N[C@@H](Cc1ccc(NC(=O)NC(=O)[C@H](N)CCC(N)=O)cc1)C(=O)N[C@H](Cc1ccc(NC(N)=O)cc1)C(=O)N[C@@H](CC(C)C)C(=O)N[C@@H](CCCCNC(C)C)C(=O)N1CCC[C@H]1C(=O)N[C@H](C)C(=O)O | 6.86 nM | 6.31 nM
CC(=O)N[C@H](Cc1ccc2ccccc2c1)C(=O)N[C@H](Cc1ccc(Cl)cc1)C(=O)N[C@H](Cc1cccnc1)C(=O)N[C@@H](CO)C(=O)N[C@@H](Cc1ccc(NC(=O)C2CCNC(=O)N2)cc1)C(=O)N[C@H](Cc1ccc(NC(N)=O)cc1)C(=O)N[C@@H](CC(C)C)C(=O)N[C@@H](CCCCNC(C)C)C(=O)N1CCC[C@H]1C(=O)N[C@H](C)C(N)=O (some centres undefined) | 1.78 nM | 2 nM
CC(=O)N[C@H](Cc1ccc2ccccc2c1)C(=O)N[C@H](Cc1ccc(Cl)cc1)C(=O)N[C@H](Cc1cccnc1)C(=O)N[C@@H](CO)C(=O)N[C@@H](Cc1ccc(NC(=O)C(N)CN)cc1)C(=O)N[C@H](Cc1ccc(NC(N)=O)cc1)C(=O)N[C@@H](CC(C)C)C(=O)N[C@@H](CCCCNC(C)C)C(=O)N1CCC[C@H]1C(=O)N[C@H](C)C(=O)O (some centres undefined) | 6.37 nM | 6.31 nM
CC(=O)N[C@H](Cc1ccc2ccccc2c1)C(=O)N[C@H](Cc1ccc(Cl)cc1)C(=O)N[C@H](Cc1cccnc1)C(=O)N[C@@H](CO)C(=O)N[C@@H](Cc1ccc(NC(=O)NC(=O)[C@@H](N)CC(N)=O)cc1)C(=O)N[C@H](Cc1ccc(NC(N)=O)cc1)C(=O)N[C@@H](CC(C)C)C(=O)N[C@@H](CCCCNC(C)C)C(=O)N1CCC[C@H]1C(=O)N[C@H](C)C(=O)O | 2.37 nM | 2.51 nM
CC(=O)N[C@H](Cc1ccc2ccccc2c1)C(=O)N[C@H](Cc1ccc(Cl)cc1)C(=O)N[C@H](Cc1cccnc1)C(=O)N[C@@H](CO)C(=O)N[C@@H](Cc1ccc(Nc2n[nH]c(N)n2)cc1)C(=O)N[C@H](Cc1ccc(Nc2n[nH]c(N)n2)cc1)C(=O)N[C@@H](CC(C)C)C(=O)N[C@@H](CCCCNC(C)C)C(=O)N1CCC[C@H]1C(=O)N[C@H](C)C(N)=O (Ac-[d2Nal][dPhe(4-Cl)][d3Pal]S[Phe(4-NH(5-NH2triazol-3-yl))][X1]L[Lys(iPr)]P[dA]-NH2) | – | 1.26 nM
